Measured values as given in ChEMBL document CHEMBL5512608, “Therapeutic potential of targeting polo-like kinase 4” (Eur J Med Chem, 2024).
Values belong to the compound of their own block, whether it stands above or below them.

Experiments:
[1] = molecular target: T1, Serine/threonine-protein kinase PLK4 (Homo sapiens, UniProt O00444); assay: Inhibition of PLK4 (unknown origin)
T1 sequence (O00444 whole entry): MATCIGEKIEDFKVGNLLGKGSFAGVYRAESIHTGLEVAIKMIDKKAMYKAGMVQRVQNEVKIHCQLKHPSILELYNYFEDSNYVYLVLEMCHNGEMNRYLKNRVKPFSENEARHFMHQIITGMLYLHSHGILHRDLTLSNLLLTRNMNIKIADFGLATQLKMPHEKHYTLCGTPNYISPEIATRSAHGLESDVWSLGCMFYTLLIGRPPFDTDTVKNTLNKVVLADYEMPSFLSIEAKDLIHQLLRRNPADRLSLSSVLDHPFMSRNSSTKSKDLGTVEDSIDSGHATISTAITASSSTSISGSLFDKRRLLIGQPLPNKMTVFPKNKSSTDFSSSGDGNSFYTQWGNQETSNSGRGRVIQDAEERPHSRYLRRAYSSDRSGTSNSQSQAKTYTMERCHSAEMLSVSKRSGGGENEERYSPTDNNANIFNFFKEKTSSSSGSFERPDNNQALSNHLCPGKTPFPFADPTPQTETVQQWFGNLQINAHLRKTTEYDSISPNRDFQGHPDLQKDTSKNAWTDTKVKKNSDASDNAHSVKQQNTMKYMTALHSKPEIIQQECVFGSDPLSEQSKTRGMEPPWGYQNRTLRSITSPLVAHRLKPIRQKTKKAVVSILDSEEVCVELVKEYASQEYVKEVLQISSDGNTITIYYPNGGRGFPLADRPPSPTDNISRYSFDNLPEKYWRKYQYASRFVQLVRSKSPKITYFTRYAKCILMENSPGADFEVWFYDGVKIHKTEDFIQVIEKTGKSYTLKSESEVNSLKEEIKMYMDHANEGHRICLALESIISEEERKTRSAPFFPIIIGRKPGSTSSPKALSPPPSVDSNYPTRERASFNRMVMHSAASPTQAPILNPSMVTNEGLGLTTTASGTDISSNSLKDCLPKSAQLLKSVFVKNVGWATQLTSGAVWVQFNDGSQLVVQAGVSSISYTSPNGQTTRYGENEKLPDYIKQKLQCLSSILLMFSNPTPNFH

[2] = Antiproliferative activity against human TNBC cells assessed as reduction in cell viability; type: functional, cell-based; details: Breast carcinoma cell
MDA-MB-468 = assay: Antitumor activity against human MDA-MB-468 cells xenografted in nude mouse assessed as tumor growth inhibition at 20 mg/kg, po relative to control; type: functional; details: read-out: TGI
[3] = Selectivity ratio of Ki for PLK4 (unknown origin) to Ki for AURORA-A (unknown origin)
[4] = molecular target: T1, Serine/threonine-protein kinase PLK4; assay: Binding affinity to PLK4 (unknown origin) assessed as inhibition constant
[5] = molecular target: Serine/threonine-protein kinase PLK2 (Homo sapiens, UniProt Q9NYY3); assay: Inhibition of full length PLK2 (unknown origin)
A2780 = assay: Antiproliferative activity against human A2780 cells assessed as reduction in cell viability measured after 72 hrs by AlamarBlue assay; type: functional, cell-based; details: A2780, 72 h
HCT-116 = assay: Antiproliferative activity against human HCT-116 cells assessed as reduction in cell viability measured after 72 hrs by AlamarBlue assay; type: functional, cell-based; details: HCT-116, 72 h
NCI-H1299 = assay: Antiproliferative activity against human NCI-H1299 cells assessed as reduction in cell viability measured after 72 hrs by AlamarBlue assay; type: functional, cell-based; details: NCI-H1299, 72 h
MDA-MB-231 = assay: Antiproliferative activity against human MDA-MB-231 cells assessed as reduction in cell viability measured after 72 hrs by AlamarBlue assay; type: functional, cell-based; details: MDA-MB-231, 72 h
U-87 MG = assay: Antiproliferative activity against human U-87 MG cells assessed as reduction in cell viability measured after 72 hrs by AlamarBlue assay; type: functional, cell-based, U-87MG ATCC

Serine/threonine-protein kinase PLK2, sequence (Q9NYY3 whole entry): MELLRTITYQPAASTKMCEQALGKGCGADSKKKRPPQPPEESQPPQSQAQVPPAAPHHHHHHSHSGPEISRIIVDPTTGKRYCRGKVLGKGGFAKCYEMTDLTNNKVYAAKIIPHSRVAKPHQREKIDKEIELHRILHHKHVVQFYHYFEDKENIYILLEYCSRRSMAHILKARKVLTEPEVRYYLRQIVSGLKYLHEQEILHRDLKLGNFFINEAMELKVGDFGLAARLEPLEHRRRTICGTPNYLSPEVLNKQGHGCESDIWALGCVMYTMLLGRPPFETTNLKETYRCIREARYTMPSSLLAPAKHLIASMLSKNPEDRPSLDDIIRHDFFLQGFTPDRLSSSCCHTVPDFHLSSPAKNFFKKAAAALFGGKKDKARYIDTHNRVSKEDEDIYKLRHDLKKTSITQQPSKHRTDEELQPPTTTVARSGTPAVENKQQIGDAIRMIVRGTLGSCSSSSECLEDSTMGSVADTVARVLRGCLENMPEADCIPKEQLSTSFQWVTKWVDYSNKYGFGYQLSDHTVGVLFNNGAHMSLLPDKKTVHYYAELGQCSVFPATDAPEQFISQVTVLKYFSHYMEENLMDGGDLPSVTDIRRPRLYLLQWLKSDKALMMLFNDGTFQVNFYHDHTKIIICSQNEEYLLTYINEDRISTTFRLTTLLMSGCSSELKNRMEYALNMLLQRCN

IC50 [1]: 27 nM
Structure (SMILES): CNC(=O)c1ccccc1Nc1nc(Nc2ccc(S(C)(=O)=O)cc2)nc2[nH]ncc12

Structure (SMILES): CC(=O)Nc1nccc(-c2ccc3c(/C=C/c4ccc(CN(C)C)cc4)n[nH]c3c2)n1
IC50 [2]: 60 nM
inhibition in vivo at 20 mg/kg (MDA-MB-468): 80%

Ratio Ki [3]: 15
Ki [4]: 15 nM
Structure (SMILES): COc1c(Nc2cc(C)[nH]n2)nc(Sc2ccc(NC(=O)C3CC3)cc2)nc1N1CCN(C)CC1

IC50 [1]: 2100 nM
Structure (SMILES): c1ccc(CNc2nc(Nc3cccc(N4CCOCC4)c3)nc3[nH]ncc23)cc1

Ratio Ki [3]: 2100
Structure (SMILES): COc1c(Nc2cc(C)[nH]n2)nc(Sc2ccc(S(=O)(=O)Cc3cccc([N+](=O)[O-])c3F)cc2F)nc1N1CCCCC1

IC50 [1]: 11.2 nM
Structure (SMILES): CN(C)Cc1ccc(/C=C/c2n[nH]c3cc(-c4ccnc(N)n4)ccc23)cc1
IC50 [2]: 60 nM
inhibition in vivo at 20 mg/kg (MDA-MB-468): 80%

IC50 [5]: > 19000 nM
Structure (SMILES): Cn1c2ccccc2c2c3c(c4c5ccccc5n(CCC#N)c4c21)CNC3=O [GO-6976]

IC50 (A2780): 5 nM
IC50 (HCT-116): 5 nM
IC50 (NCI-H1299): 5 nM
IC50 (MDA-MB-231): 5 nM
IC50 (U-87 MG): 5 nM
Structure (SMILES): COCCOc1ccc2cc1OCC(=O)N(C)CCCN(C)Cc1c[nH]c3ncnc(c13)N2
